According to patent US20180169108A1, “Drug Combinations For the Treatment of HIV” (The Johns Hopkins University, priority 2015, published 2018):

Tests used:
[1] = test system: HIV-1 (latent, in resting CD4+ T cells from infected individuals); conditions: earlier study of the inventors (32); cited from earlier work
[2] = cancer patients; cited from earlier work
[3] = test system: HIV-1 (latent, in resting CD4+ T cells from infected individuals); assay type: cell-based; conditions: for virus release into supernatant (in words): 24 hours of treatment; for ρ, median fold change in supernatant HIV-1 mRNA versus DMSO control observed in the ex vivo assay: lower bound, as no virion production was detectable for DMSO
Description: Production and release of HIV-1 virions by LRA-treated rCD4s indicates complete reversal of latency in those cells. To assess whether combinations of LRAs induced rapid virus release, HIV-1 mRNA were measured in the culture supernatants of LRA-treated rCD4s from infected individuals on suppressive ART using an RT-qPCR assay previously shown to provide sensitive and accurate quantitation of HIV-1 virion production (45). […] The Bliss independence model was applied to quantitate interactions between LRAs.
(§1) The final DMSO percentage was 0.2% (v/v) for all single and combination treatments. Concentrations were chosen based on previous ex vivo studies with rCD4s from infected individuals as well as studies using in vitro latency models (13, 28, 29, 32-34) with the aim of selecting clinically relevant concentrations.
HIV-1 mRNA was extracted from 0.25 mL of supernatant from the LRA-treated cell cultures described above with 0.75 mL of TRIzol® LS Reagent (Invitrogen) according to the manufacturer's protocol. cDNA synthesis and real-time quantitative PCR was performed as described (32). […] The limit of detection for each qPCR was 10 copies per reaction, which scaled to a limit of detection of 150 copies per mL of culture supernatant. Primers and probes are listed below. Molecular standard curve was generated as described above.
(§2) The Bliss independence model, one method to predict the expected combined effects of multiple drugs assuming the drugs act through independent mechanisms, as a metric by which to evaluate the latency reversing activity of drug combinations was used. The Bliss independence model is defined by the equation:
(§3) If Dfaxy=0, then the drug combination follows the Bliss model for independent action. […] In this analysis, the fraction affected was calculated as follows for intracellular HIV-1 mRNA and for supernatant HIV-1 virion quantitation:
(§4) fax=(copies drug X−copies DMSO control)/(copies PMA/I−copies DMSO control)

[4] = continuous infusion for 14 or 21 days; cited from earlier work
[5] = test system: HIV-1 (latent, in resting CD4+ T cells from infected individuals)
From the text: as §1, §2, §3, §4

HIV-1 = conditions: patients on ART; cited from earlier work
[6] = test system: HIV-1 (latent, in resting CD4+ T cells from infected individuals); conditions: earlier study (32); cited from earlier work

Structure (SMILES)	latency reversal in rCD4s from infected individuals (in words) [1]	virus release into supernatant (in words) [3]	ρ, median fold change in supernatant HIV-1 mRNA versus DMSO control observed in the ex vivo assay [3]	also measured
Cc1sc2c(c1C)C(c1ccc(Cl)cc1)=N[C@@H](CC(=O)OC(C)(C)C)c1nnc(C)n1-2 [JQ1]	only minimally active			
CCC/C=C/C=C/C(=O)O[C@H]1/C(=C/C(=O)OC)C[C@H]2C[C@H]([C@@H](C)O)OC(=O)C[C@H](O)C[C@@H]3C[C@H](OC(C)=O)C(C)(C)[C@](O)(C[C@@H]4C/C(=C/C(=O)OC)C[C@H](/C=C/C(C)(C)[C@]1(O)O2)O4)O3 [bryostatin-1]		significant virus release	120	intracellular HIV-1 mRNA induction relative to the maximum reactivation elicited by T cell activation [1]: four; clinical tolerability (in words) [2]: dose limiting toxicities grade 3/4 myalgia, arthralgia, and weakness; approximated maximally tolerated dose [4]: ~16 μg/m2/day; induction of intracellular HIV-1 mRNA (significance, in words) ([5]; 1 nM bryostatin-1): did not induce significant intracellular HIV-1 mRNA; mean increase in intracellular HIV-1 mRNA, fold induction relative to DMSO control ([5]; rCD4s from infected individuals on ART, 24 h, 10 nM bryostatin-1, 300 nM prostratin, 40 nM romidepsin, 50 ng/mL PMA + 1 μM ionomycin): 12.8 fold
CC(=O)O[C@@]12C[C@@H](C)[C@@]3(O)[C@@H](C=C(CO)C[C@]4(O)C(=O)C(C)=C[C@@H]34)[C@@H]1C2(C)C [prostratin]		significant virus release	209	
C/C=C1\NC(=O)[C@H]2CSSCC/C=C/[C@H](CC(=O)N[C@H](C(C)C)C(=O)N2)OC(=O)[C@H](C(C)C)NC1=O [romidepsin]			15	
O=C(CCCCCCC(=O)Nc1ccccc1)NO [vorinostat]	only minimally active			increase in plasma HIV-1 RNA using quantitative clinical assays (in words) (HIV-1): no increases in plasma HIV-1 RNA; viral production ex vivo (in words) [6]: fail to stimulate detectable viral production
